Among the data in BindingDB's records for doi:10.1016/j.bmc.2016.11.012 (China Pharmaceutical University, 2017) are IC50 values, retold here.

The IC50 is the concentration at which inhibition is half-maximal.

The assay can be described thus: Inhibition of rabbit thrombin-induced platelet aggregation in rabbit platelet-rich plasma preincubated with rabbit liver microsomes for 4 hrs followed by addition to platelet. For orientation: Liver microsomes are a subcellular fraction often used to study metabolism.

In turn, `N/C(=N\C(=O)OCc1ccccc1)c1ccc(CC2c3nc4cc(C5(C(=O)N6CCCC6)CCCC5)ccc4n3CCN2C(=O)OCc2ccccc2)cc1` (stereo unspecified) registered an IC50 above 1000 µM.

Molecule `Cc1nc(C)c(OC(=O)/N=C(\N)c2ccc(CC3NCCn4c3nc3cc(C5(C(=O)N6CCCC6)CCCC5)ccc34)cc2)nc1C` (stereo unspecified) returned an IC50 of 1.95 µM.

For the molecule `N/C(=N\C(=O)OCc1ccccc1)c1ccc(CC2NCCn3c2nc2cc(C4(C(=O)N5CCCC5)CCCC4)ccc23)cc1` (stereo unspecified), the IC50 amounted to 91.2 µM.

`CCCCCCOC(=O)/N=C(\N)c1ccc(CC2c3nc4cc(C5(C(=O)N6CCCC6)CCCC5)ccc4n3CCN2C(=O)OCCCCCC)cc1` (stereo unspecified) registered an IC50 of 91.5 µM.

Regarding `CCOC(=O)/N=C(\N)c1ccc(CC2NCCn3c2nc2cc(C4(C(=O)N5CCCC5)CCCC4)ccc23)cc1` (stereo unspecified), 88.2 µM corresponded to half-maximal inhibition (IC50).

In turn, `CCCCCCOC(=O)/N=C(\N)c1ccc(CC2NCCn3c2nc2cc(C4(C(=O)N5CCCC5)CCCC4)ccc23)cc1` (stereo unspecified) displayed an IC50 of 25.3 µM. This IC50 lies about 3.5-fold lower than the previous one.

Regarding `CC(C)(C)OC(=O)/N=C(\N)c1ccc(CC2NCCn3c2nc2cc(C4(C(=O)N5CCCC5)CCCC4)ccc23)cc1` (stereo unspecified), the IC50 worked out at 8.16 µM.

Consider `CC(C)COC(=O)/N=C(\N)c1ccc(CC2c3nc4cc(C5(C(=O)N6CCCC6)CCCC5)ccc4n3CCN2C(=O)OCC(C)C)cc1` (stereo unspecified), for which the IC50 was above 1000 µM.

Molecule `CC(C)(C)OC(=O)/N=C(\N)c1ccc(CC2c3nc4cc(C5(C(=O)N6CCCC6)CCCC5)ccc4n3CCN2C(=O)OC(C)(C)C)cc1` (stereo unspecified) came in with an IC50 above 1000 µM.

The molecule `CCCCCCOC(=O)N=C(N)c1ccc(NCc2nc3cc(C(=O)N(CCC(=O)OCC)c4ccccn4)ccc3n2C)cc1` [BIBR-1048] had an IC50 of 0.554 µM.

`CC(C)COC(=O)/N=C(\N)c1ccc(CC2NCCn3c2nc2cc(C4(C(=O)N5CCCC5)CCCC4)ccc23)cc1` (stereo unspecified) yielded a half-inhibitory concentration (IC50) of 164 µM.
